Source: patent publication US20070213346A1, “Substituted 4-Alkyl-And 4-Alkanoyl-Piperidine Derivatives And Their Use As Neurokinin Antagonists” (priority 2004, published 2007)

Legend:
Type in all cases: cell-based
NK1 = NK1 (Homo sapiens, UniProt P25103); assay: Signal transduction (ST), intracellular Ca++ FLIPR, NK1; details: antagonist, Ca++ transient peak, read-out: NK1 pIC50 (converted)
Protocol: (§1) This test evaluates in vitro functional NK1 antagonistic activity. For the measurements of intracellular Ca^++ concentrations the cells were grown on 96-well (black wall/transparent bottom) plates from Costar for 2 days until they reached confluence. The cells were loaded with 2 μM Fluo3 in DMEM containing 0.1% BSA and 2.5 mM probenecid for 1 h at 37° C. They were washed 3× with a Krebs buffer (140 mM NaCl, 1 mM MgCl2x6H2O, 5 mM KCl, 10 mM glucose, 5 mM HEPES; 1.25 mM CaCl2; pH 7.4) containing 2.5 mM probenecid and 0.1% BSA (Ca^++-buffer). The cells were preincubated with a concentration range of antagonists for 20 min at RT and Ca^++-signals after addition of the agonists were measured in a Fluorescence Image Plate Reader (FLIPR from Molecular Devices, Crawley, England). The peak of the Ca^++-transient was considered as the relevant signal and the mean values of corresponding wells were analysed as described below.
The sigmoidal dose response curves were analysed by computerised curve-fitting, using the GraphPad program. The EC50-value of a compound is the effective dose showing 50% of maximal effect. For mean curves the response to the agonist with the highest potency was normalised to 100%. For antagonist responses the IC50-value was calculated using non-linear regression. […]

NK3 = molecular target: T1, NK3 (Homo sapiens, UniProt P29371); assay: Signal transduction (ST), intracellular Ca++ FLIPR, NK3; details: antagonist, Ca++ transient peak, read-out: NK3 pIC50 (converted)
T1 sequence (P29371 1-465): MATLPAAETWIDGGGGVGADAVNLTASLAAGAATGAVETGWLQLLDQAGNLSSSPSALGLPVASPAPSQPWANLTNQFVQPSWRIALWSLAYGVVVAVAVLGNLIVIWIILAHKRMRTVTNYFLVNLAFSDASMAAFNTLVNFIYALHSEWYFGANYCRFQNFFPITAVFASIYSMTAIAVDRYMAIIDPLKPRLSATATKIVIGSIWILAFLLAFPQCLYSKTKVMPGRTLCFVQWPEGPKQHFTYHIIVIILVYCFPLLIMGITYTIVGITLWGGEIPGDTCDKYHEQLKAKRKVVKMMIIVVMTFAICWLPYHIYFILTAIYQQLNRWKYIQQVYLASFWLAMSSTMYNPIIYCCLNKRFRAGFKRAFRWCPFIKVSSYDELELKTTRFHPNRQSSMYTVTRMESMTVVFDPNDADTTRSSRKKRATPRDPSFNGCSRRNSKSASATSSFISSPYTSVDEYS
Protocol: [The source words this procedure for another target and reports this target under the same test.] as §1
(§2) The sigmoidal dose response curves were analysed by computerised curve-fitting, using the GraphPad program. The EC50-value of a compound is the effective dose showing 50% of maximal effect. For mean curves the response to the agonist with the highest potency was normalised to 100%. For antagonist responses the IC50-value was calculated using non-linear regression.
(§3) The last columns indicates—without being limited thereto—for which use the compounds might be most suitable. Of course, since for some neurokinin receptors no data was determined, it is obvious that these compounds might be attributed to another suitable use.

NK2 = molecular target: T2, NK2 (Homo sapiens, UniProt P21452); assay: Signal transduction (ST), intracellular Ca++ FLIPR, NK2; details: antagonist, Ca++ transient peak, read-out: NK2 pIC50 (converted)
T2 sequence (P21452 1-398): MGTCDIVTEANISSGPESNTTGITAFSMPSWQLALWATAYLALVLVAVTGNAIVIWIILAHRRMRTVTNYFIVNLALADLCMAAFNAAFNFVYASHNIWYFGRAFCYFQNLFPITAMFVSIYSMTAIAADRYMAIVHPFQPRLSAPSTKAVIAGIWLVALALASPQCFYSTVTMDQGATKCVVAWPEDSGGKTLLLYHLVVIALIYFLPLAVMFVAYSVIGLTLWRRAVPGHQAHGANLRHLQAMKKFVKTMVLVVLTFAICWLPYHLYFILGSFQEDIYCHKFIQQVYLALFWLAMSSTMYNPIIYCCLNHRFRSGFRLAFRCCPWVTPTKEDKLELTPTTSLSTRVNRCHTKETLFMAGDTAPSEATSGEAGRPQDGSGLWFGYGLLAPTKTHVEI
Protocol: [The source words this procedure for another target and reports this target under the same test.] as §1, §2, §3

Sequence of NK1 (P25103 whole entry): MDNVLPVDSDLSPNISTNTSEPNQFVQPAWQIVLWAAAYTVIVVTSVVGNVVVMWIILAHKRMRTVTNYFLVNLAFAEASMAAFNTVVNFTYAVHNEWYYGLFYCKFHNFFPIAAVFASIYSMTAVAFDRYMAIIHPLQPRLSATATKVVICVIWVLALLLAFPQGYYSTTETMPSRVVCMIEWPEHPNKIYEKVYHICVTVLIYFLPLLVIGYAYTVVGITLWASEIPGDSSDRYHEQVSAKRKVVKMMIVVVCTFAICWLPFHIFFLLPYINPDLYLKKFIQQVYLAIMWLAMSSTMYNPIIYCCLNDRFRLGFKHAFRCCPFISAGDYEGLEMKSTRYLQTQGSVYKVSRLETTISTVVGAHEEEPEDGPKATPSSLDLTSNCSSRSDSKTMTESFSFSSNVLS

SMILES | IC50 (NK1) | IC50 (NK3) | IC50 (NK2)
O=C(c1cc2ccccc2oc1=O)N1CCC(N2CCN(C[C@H]3CCN(C(=O)c4cc(C(F)(F)F)cc(C(F)(F)F)c4)[C@H](Cc4ccccc4)C3)CC2)CC1 (relative stereo) [Compound 50] | 0.0912 µM | – | –
O=C(C1CCN(C(=O)c2cc(C(F)(F)F)cc(C(F)(F)F)c2)C(Cc2ccccc2)C1)N1CCN(C2CCN(Cc3ccccc3)CC2)CC1 (centres unmarked) [Compound 3] | 0.347 µM | > 10 µM | –
O=C(C1CCN(C(=O)c2cc(C(F)(F)F)cc(C(F)(F)F)c2)C(Cc2ccccc2)C1)N1CCN(C2CCNCC2)CC1 (centres unmarked) [Compound 4] | 0.251 µM | > 10 µM | –
Cc1cc(C)cc(C(=O)N2CCC(N3CCN(CC4CCN(C(=O)c5cc(C(F)(F)F)cc(C(F)(F)F)c5)C(Cc5ccccc5)C4)CC3)CC2)c1 (centres unmarked) [Compound 12] | 0.316 µM | – | –
O=C(C1CCN(C(=O)c2cc(C(F)(F)F)cc(C(F)(F)F)c2)C(Cc2ccccc2)C1)N1CCN(C2CCN(S(=O)(=O)c3cccs3)C2)CC1 (centres unmarked) [Compound 13] | 0.0132 µM | 2.51 µM | –
O=C(c1ccc2ccccc2n1)N1CCC(N2CCN(CC3CCN(C(=O)c4cc(C(F)(F)F)cc(C(F)(F)F)c4)C(Cc4ccccc4)C3)CC2)CC1 (centres unmarked) [Compound 16] | 0.138 µM | – | –
Cc1cc(C(=O)N2CCC(N3CCN(C[C@H]4CCN(C(=O)c5cc(C(F)(F)F)cc(C(F)(F)F)c5)[C@H](Cc5ccccc5)C4)CC3)CC2)no1 [Compound 36] | 0.0468 µM | – | –
O=C(c1ccccn1)N1CCC(N2CCN(C[C@H]3CCN(C(=O)c4cc(C(F)(F)F)cc(C(F)(F)F)c4)[C@H](Cc4ccccc4)C3)CC2)CC1 [Compound 47] | 0.204 µM | – | –
COc1cc(CC(=O)N2CCC(N3CCN(CC4CCN(C(=O)c5cc(C(F)(F)F)cc(C(F)(F)F)c5)C(Cc5ccccc5)C4)CC3)CC2)cc(OC)c1OC (centres unmarked) [Compound 53] | 0.0851 µM | – | –
O=C(c1ccoc1)N1CCC(N2CCN(C(=O)[C@H]3CCN(C(=O)c4cc(C(F)(F)F)cc(C(F)(F)F)c4)[C@H](Cc4ccccc4)C3)CC2)CC1 [Compound 57] | 0.0229 µM | 2.45 µM | –
Cc1nnsc1C(=O)N1CCC(N2CCN(C(=O)[C@H]3CCN(C(=O)c4cc(C(F)(F)F)cc(C(F)(F)F)c4)[C@H](Cc4ccccc4)C3)CC2)CC1 [Compound 58] | 0.00871 µM | > 10 µM | –
O=C(c1ccccc1)N1CCC(N2CCN(C(=O)[C@H]3CCN(C(=O)c4cc(C(F)(F)F)cc(C(F)(F)F)c4)[C@H](Cc4ccccc4)C3)CC2)CC1 [Compound 59] | 0.0107 µM | 9.55 µM | –
O=C([C@H]1CCN(C(=O)c2cc(C(F)(F)F)cc(C(F)(F)F)c2)[C@H](Cc2ccccc2)C1)N1CCN(C2CCNC2)CC1 (some centres unmarked) [Compound 66] | 0.214 µM | 6.76 µM | –
O=C(C1CC1)N1CCC(N2CCN(C(=O)[C@H]3CCN(C(=O)c4cc(C(F)(F)F)cc(C(F)(F)F)c4)[C@H](Cc4ccccc4)C3)CC2)C1 (some centres unmarked) [Compound 68] | 0.0132 µM | 6.61 µM | –
O=C(C1CCOC1)N1CCC(N2CCN(C(=O)[C@H]3CCN(C(=O)c4cc(C(F)(F)F)cc(C(F)(F)F)c4)[C@H](Cc4ccccc4)C3)CC2)C1 (some centres unmarked) [Compound 69] | 0.0398 µM | 6.03 µM | –
O=C(c1ccoc1)N1CCC(N2CCN(C(=O)[C@H]3CCN(C(=O)c4cc(C(F)(F)F)cc(C(F)(F)F)c4)[C@H](Cc4ccccc4)C3)CC2)C1 (some centres unmarked) [Compound 70] | 0.0257 µM | > 10 µM | –
O=C(c1ccccc1Cl)N1CCC(N2CCN(C(=O)[C@H]3CCN(C(=O)c4cc(C(F)(F)F)cc(C(F)(F)F)c4)[C@H](Cc4ccccc4)C3)CC2)C1 (some centres unmarked) [Compound 72] | 0.0316 µM | > 10 µM | –
COC1(CN2CCN(C3CCN(C(=O)c4snnc4C)C3)CC2)CCN(C(=O)c2cc(C(F)(F)F)cc(C(F)(F)F)c2)C(Cc2ccccc2)C1 (centres unmarked) [Compound 86] | 0.0676 µM | 10.2 µM | –
COC1(CN2CCN(C3CCN(C(=O)c4ccccc4)C3)CC2)CCN(C(=O)c2cc(C(F)(F)F)cc(C(F)(F)F)c2)C(Cc2ccccc2)C1 (centres unmarked) [Compound 87] | 0.115 µM | > 10 µM | –
COC1(CN2CCN(C3CCN(C(=O)c4cccnc4)C3)CC2)CCN(C(=O)c2cc(C(F)(F)F)cc(C(F)(F)F)c2)C(Cc2ccccc2)C1 (centres unmarked) [Compound 88] | 0.0617 µM | > 10 µM | –
COC1(CN2CCN(C3CCN(S(=O)(=O)c4c(C)noc4C)C3)CC2)CCN(C(=O)c2cc(C(F)(F)F)cc(C(F)(F)F)c2)C(Cc2ccccc2)C1 (centres unmarked) [Compound 89] | 0.0603 µM | 3.55 µM | –

Results, then the compound that gave them:

IC50 (NK1) | IC50 (NK3) | IC50 (NK2) | SMILES
0.174 µM | > 10 µM | – | CC(C)(C)OC(=O)N1CCC(N2CCN(C(=O)CC3CCN(C(=O)c4cc(C(F)(F)F)cc(C(F)(F)F)c4)[C@@H](Cc4ccccc4)C3)CC2)C1 (mixture of isomers) [Compound 7]
0.0417 µM | > 10 µM | – | O=C(CC1CCN(C(=O)c2cc(C(F)(F)F)cc(C(F)(F)F)c2)[C@@H](Cc2ccccc2)C1)N1CCN(C2CCN(C(=O)C3CCOC3)C2)CC1 (mixture of isomers) [Compound 73]
0.209 µM | > 10 µM | – | CC(C)(C)OC(=O)N1CCC(N2CCN(CC3CCN(C(=O)c4cc(C(F)(F)F)cc(C(F)(F)F)c4)C(Cc4ccccc4)C3)CC2)CC1 (centres unmarked) [Compound 5]
0.302 µM | > 10 µM | – | O=C(CC1CCN(C(=O)c2cc(C(F)(F)F)cc(C(F)(F)F)c2)C(Cc2ccccc2)C1)N1CCN(C2CCNC2)CC1 (centres unmarked) [Compound 8]
0.224 µM | – | – | Cn1cccc1C(=O)N1CCC(N2CCN(CC3CCN(C(=O)c4cc(C(F)(F)F)cc(C(F)(F)F)c4)C(Cc4ccccc4)C3)CC2)CC1 (centres unmarked) [Compound 33]
0.209 µM | – | – | Cn1cccc1C(=O)N1CCC(N2CCN(C[C@H]3CCN(C(=O)c4cc(C(F)(F)F)cc(C(F)(F)F)c4)[C@H](Cc4ccccc4)C3)CC2)CC1 [Compound 34]
0.347 µM | – | – | Cn1cc(C(=O)N2CCC(N3CCN(CC4CCN(C(=O)c5cc(C(F)(F)F)cc(C(F)(F)F)c5)C(Cc5ccccc5)C4)CC3)CC2)c2ccccc21 (centres unmarked) [Compound 40]
0.166 µM | – | – | Cc1cccc(C(=O)N2CCC(N3CCN(C[C@H]4CCN(C(=O)c5cc(C(F)(F)F)cc(C(F)(F)F)c5)[C@H](Cc5ccccc5)C4)CC3)CC2)c1 [Compound 41]
0.123 µM | – | – | O=C(c1ccccc1O)N1CCC(N2CCN(CC3CCN(C(=O)c4cc(C(F)(F)F)cc(C(F)(F)F)c4)C(Cc4ccccc4)C3)CC2)CC1 (centres unmarked) [Compound 43]
0.0871 µM | – | – | O=C(c1cccc(O)c1)N1CCC(N2CCN(CC3CCN(C(=O)c4cc(C(F)(F)F)cc(C(F)(F)F)c4)C(Cc4ccccc4)C3)CC2)CC1 (centres unmarked) [Compound 44]
0.0257 µM | – | > 10 µM | O=C(c1cccnc1)N1CCC(N2CCN(C[C@H]3CCN(C(=O)c4cc(C(F)(F)F)cc(C(F)(F)F)c4)[C@H](Cc4ccccc4)C3)CC2)CC1 [Compound 48]
0.12 µM | – | – | O=C(Cc1c[nH]cn1)N1CCC(N2CCN(CC3CCN(C(=O)c4cc(C(F)(F)F)cc(C(F)(F)F)c4)C(Cc4ccccc4)C3)CC2)CC1 (centres unmarked) [Compound 51]
0.0759 µM | > 10 µM | – | O=C([C@H]1CCN(C(=O)c2cc(C(F)(F)F)cc(C(F)(F)F)c2)[C@H](Cc2ccccc2)C1)N1CCN(C2CCN(Cc3ccccc3)C2)CC1 (some centres unmarked) [Compound 67]
0.2 µM | > 10 µM | – | COC1(CN2CCN(C3CCNC3)CC2)CCN(C(=O)c2cc(C(F)(F)F)cc(C(F)(F)F)c2)C(Cc2ccccc2)C1 (centres unmarked) [Compound 81]
0.0646 µM | > 10 µM | – | COC1(CN2CCN(C3CCN(C(=O)c4ccoc4)C3)CC2)CCN(C(=O)c2cc(C(F)(F)F)cc(C(F)(F)F)c2)C(Cc2ccccc2)C1 (centres unmarked) [Compound 85]
